Reference: PMC6677322, “Dafachronic acid promotes larval development in Haemonchus contortus by modulating dauer signalling and lipid metabolism” (PLoS Pathogens, 2019)

How the values were obtained:
[1] = biological target: Hc-DAF-12 (Haemonchus contortus, UniProt A0A650FMZ7); assay: luciferase reporter assay in HEK293 cells transfected with Hc-DAF-12; type: cell-based
[2] = biological target: T1, Ac-DAF-12 (Ancylostoma caninum, UniProt A0A368G7M4); assay: luciferase reporter assay in HEK293 cells; type: cell-based
T1 construct: gene ANCCAN_15412
T1 sequence (A0A368G7M4 entry or part of it): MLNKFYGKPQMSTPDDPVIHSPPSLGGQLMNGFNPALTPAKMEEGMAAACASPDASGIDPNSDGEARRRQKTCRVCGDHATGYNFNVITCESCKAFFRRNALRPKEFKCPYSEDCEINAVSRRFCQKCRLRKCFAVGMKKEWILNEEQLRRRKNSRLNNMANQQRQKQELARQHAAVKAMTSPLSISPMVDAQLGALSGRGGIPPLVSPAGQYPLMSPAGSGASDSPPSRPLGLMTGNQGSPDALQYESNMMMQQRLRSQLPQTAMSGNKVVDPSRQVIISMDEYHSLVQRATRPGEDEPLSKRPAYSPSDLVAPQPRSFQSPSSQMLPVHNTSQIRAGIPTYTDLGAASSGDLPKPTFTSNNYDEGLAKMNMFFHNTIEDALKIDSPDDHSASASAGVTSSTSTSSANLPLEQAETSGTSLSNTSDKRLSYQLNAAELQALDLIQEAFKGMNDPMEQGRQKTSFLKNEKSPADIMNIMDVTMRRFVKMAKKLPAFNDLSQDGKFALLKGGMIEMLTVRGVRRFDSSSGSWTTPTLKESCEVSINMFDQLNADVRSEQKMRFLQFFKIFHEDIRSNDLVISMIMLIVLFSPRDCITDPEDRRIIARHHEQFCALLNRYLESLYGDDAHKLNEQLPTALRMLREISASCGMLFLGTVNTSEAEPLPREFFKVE

Hc-DAF-12, sequence (A0A650FMZ7 entry or part of it): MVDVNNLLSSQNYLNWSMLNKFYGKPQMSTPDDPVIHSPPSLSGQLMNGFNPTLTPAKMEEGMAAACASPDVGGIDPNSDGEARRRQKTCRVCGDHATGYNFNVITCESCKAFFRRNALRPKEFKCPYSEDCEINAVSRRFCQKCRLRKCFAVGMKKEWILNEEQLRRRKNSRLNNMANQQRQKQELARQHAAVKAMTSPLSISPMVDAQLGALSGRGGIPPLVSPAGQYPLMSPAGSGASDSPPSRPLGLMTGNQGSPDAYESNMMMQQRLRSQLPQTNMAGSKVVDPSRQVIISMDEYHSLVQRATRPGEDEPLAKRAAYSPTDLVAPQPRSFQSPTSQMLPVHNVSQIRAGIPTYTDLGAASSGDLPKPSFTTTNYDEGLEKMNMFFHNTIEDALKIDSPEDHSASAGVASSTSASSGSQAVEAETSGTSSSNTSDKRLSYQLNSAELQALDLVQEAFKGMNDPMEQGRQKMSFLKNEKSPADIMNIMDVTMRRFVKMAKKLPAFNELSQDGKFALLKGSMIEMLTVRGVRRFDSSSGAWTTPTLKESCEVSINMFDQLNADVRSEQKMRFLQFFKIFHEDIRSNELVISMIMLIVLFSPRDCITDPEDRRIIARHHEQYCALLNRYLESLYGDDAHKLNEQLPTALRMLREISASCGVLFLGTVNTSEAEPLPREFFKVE

C[C@H](CCC[C@H](C)C(=O)O)[C@H]1CC[C@H]2C3=CC[C@H]4CC(=O)CC[C@]4(C)[C@H]3CC[C@]12C [(25S)-Δ7-DA]
EC50 [1]: 12.5 nM
EC50 [2]: 12.8 nM
